Results from ChEMBL document CHEMBL4219212, “Synthesis of 3-(3-hydroxyphenyl)pyrrolidine dopamine D3 receptor ligands with extended functionality for probing the secondary binding pocket” (Bioorg Med Chem Lett, 2018).

What was measured:
[1] = molecular target: T1, 5-hydroxytryptamine receptor 1A (Homo sapiens, UniProt P08908); assay: Displacement of [3H]-Way100635 from 5HT1A receptor (unknown origin) expressed in stable CHO cell membranes by radioligand binding assay
T1 sequence (P08908 whole entry): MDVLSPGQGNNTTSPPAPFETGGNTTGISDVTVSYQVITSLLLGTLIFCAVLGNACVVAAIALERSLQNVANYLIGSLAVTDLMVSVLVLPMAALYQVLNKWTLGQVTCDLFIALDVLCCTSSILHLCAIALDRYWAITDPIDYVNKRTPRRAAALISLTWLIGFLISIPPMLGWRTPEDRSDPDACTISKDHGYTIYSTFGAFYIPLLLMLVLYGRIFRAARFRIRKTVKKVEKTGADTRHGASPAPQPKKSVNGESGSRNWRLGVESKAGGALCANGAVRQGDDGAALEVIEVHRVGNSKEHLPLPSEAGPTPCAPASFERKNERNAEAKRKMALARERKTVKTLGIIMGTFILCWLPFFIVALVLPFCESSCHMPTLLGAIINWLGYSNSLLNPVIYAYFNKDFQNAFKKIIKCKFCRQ

[2] = molecular target: D(1A) dopamine receptor (Homo sapiens, UniProt P21728); assay: Displacement of [3H]SCH23390 from human dopamine D1 receptor expressed in HEK293T cell membranes by radioligand binding assay
[3] = molecular target: D(3) dopamine receptor (Homo sapiens, UniProt P35462); assay: Binding affinity to human dopamine D3 receptor
[4] = molecular target: D(2) dopamine receptor (Homo sapiens, UniProt P14416); assay: Binding affinity to human dopamine D2 receptor
Sequence of D(2) dopamine receptor (P14416 whole entry): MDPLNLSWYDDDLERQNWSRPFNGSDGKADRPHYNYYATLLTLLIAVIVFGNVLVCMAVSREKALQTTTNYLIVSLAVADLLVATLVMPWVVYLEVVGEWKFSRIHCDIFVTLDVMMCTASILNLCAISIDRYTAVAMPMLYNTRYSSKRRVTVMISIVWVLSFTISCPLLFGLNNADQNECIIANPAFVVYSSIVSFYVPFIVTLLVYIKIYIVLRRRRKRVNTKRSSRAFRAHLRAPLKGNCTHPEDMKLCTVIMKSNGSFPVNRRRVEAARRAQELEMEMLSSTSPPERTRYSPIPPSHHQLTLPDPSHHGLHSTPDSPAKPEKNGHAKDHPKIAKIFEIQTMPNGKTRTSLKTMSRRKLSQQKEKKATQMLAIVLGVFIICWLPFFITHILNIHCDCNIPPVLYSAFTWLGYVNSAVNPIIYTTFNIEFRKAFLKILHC

Sequence of D(1A) dopamine receptor (P21728 whole entry): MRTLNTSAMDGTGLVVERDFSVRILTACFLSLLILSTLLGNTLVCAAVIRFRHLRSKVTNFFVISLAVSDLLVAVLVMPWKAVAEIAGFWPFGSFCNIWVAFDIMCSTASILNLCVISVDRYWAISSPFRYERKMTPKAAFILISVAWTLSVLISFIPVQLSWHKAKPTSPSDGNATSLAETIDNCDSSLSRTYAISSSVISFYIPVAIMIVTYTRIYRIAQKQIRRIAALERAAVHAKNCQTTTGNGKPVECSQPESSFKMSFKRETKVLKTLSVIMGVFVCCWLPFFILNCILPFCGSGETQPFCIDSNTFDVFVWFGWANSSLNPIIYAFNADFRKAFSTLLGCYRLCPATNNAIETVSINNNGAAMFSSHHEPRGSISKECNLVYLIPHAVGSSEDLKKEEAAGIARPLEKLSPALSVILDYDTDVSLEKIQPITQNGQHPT
Sequence of D(3) dopamine receptor (P35462 whole entry): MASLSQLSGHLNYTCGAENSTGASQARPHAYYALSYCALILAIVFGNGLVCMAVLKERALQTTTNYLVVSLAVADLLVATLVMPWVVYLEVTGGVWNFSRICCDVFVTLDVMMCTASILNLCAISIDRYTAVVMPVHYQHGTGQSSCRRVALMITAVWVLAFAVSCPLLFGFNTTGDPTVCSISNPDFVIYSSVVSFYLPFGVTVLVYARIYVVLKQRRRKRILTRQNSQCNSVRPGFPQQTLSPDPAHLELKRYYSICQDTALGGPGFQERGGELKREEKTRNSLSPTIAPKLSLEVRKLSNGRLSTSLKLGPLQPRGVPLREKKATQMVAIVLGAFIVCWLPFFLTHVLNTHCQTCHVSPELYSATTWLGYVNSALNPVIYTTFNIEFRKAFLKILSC

Structure (SMILES) | Ki [1] | Ki [2] | Ki [3] | Ki [4]
CCCCCCCCN1CCC(c2cccc(O)c2)C1 (stereo not drawn) | 9.4 nM | 170 nM |  | 
CCCCN1CCC(c2cccc(O)c2)C1 (stereo not drawn) | 1810 nM | 861 nM |  | 
CCCCCCCN1CCC(c2cccc(O)c2)C1 (stereo not drawn) | 19 nM | 597 nM |  | 
CCCCCCN1CCC(c2cccc(O)c2)C1 (stereo not drawn) | 272 nM | 1280 nM |  | 
CCCCCN1CCC(c2cccc(O)c2)C1 (stereo not drawn) | 326 nM | 542 nM |  | 
CCCCCCCCCCN1CCC(c2cccc(O)c2)C1 (stereo not drawn) | 12 nM | 128 nM |  | 
CCCN1CCC(c2cccc(O)c2)C1 (stereo not drawn) |  |  | 52 nM | 68 nM
CCCCCCCCCN1CCC(c2cccc(O)c2)C1 (racemic) | 15 nM | 174 nM |  | 
CN(C)c1ccc(C(=O)NCCCCN2CCC(c3cccc(O)c3)C2)cc1 (racemic) |  | 831 nM |  | 
CCCCCCCCCN1CCC(c2cccc(O)c2)C1 (single isomer, unassigned; (+)) | 115 nM | > 10000 nM |  | 
CN(C)c1ccc(C(=O)NCCCCN2CCC(c3cccc(O)c3)C2)cc1 (single isomer, unassigned; (+)) |  | > 10000 nM |  | 
CCCCCCCCCN1CCC(c2cccc(O)c2)C1 (single isomer, unassigned; (-)) | 48 nM | 181 nM |  | 
CN(C)c1ccc(C(=O)NCCCCN2CCC(c3cccc(O)c3)C2)cc1 (single isomer, unassigned; (-)) |  | 4590 nM |  | 
